Reference: article PMC10107299, “Neutralizing the Impact of the Virulence Factor LecA from Pseudomonas aeruginosa on Human Cells with New Glycomimetic Inhibitors” (Angewandte Chemie (International Ed. in English), 2023)
Where “and” joins values, the source holds several entries; their conditions need not be identical. Identical values can stand only once.

Assays:
LecA [1] = biological target: T1, LecA (Pseudomonas aeruginosa, UniProt Q05097); assay: Isothermal titration microcalorimetry (ITC) with LecA; type: binding; details: for -TΔS (supplement) / ΔS: ITC average ± s.d.; for Relative potency r.p. (ITC): compared to respective monovalent compound in each series; for ΔG, individual titration / ΔH, individual titration: LecA 35-182 µM, ligand 100 µM-1.5 mM as headed
T1 construct: made in house
Source text: Due to the high solubility of the propanamides in the pyridine series and the sulfonated ligand L2, we determined binding thermodynamics with LecA using isothermal titration microcalorimetry (ITC, Figure 3, Figures S5–S9). […] In both cases, the enthalpy of binding increased approximately twofold (I2: ΔH=−23.9±1.2 kcal mol^−1, L2: ΔH=−19.5±1.3 kcal mol^−1) compared to their monovalent analogues (G2: ΔH=−11.0±0.2 kcal mol^−1, K2: ΔH=−10.3±0.1 kcal mol^−1), while the binding entropy was increased approximately threefold (G2: −TΔS=3.8±0.2 kcal mol^−1 vs. I2: −TΔS=13.7±1.3 kcal mol^−1, K2: −TΔS=3.2±0.2 kcal mol^−1 vs. L2: −TΔS=9.4±1.3 kcal mol^−1).
Figure 3 Direct binding of selected ligands to LecA by ITC (N=3). Titration of LecA (50 μM) with divalent sulfonated ligand L2 (250 μM) is depicted. Relative potencies (r.p.) were calculated compared to respective monovalent compound in each series and […]. TEXT PRINTED IN THE PICTURE: G2: ΔG [kcal/mol]: -7.2 ± 0.1; ΔH [kcal/mol]: -11.0 ± 0.2; -TΔS [kcal/mol]: 3.8 ± 0.2; N: 1.07 ± 0.06; Kd [nM]: 5 270 ± 30; r.p.: 1 | I2: ΔG [kcal/mol]: -10.2 ± 0.2; ΔH [kcal/mol]: -23.9 ± 1.2; -TΔS [kcal/mol]: 13.7 ± 1.3; N: 0.43 ± 0.01; Kd [nM]: 35.1 ± 12.5; r.p.: 150 | J2: ΔG [kcal/mol]: -9.7 ± 0.2; ΔH [kcal/mol]: -13.5 ± 0.4; -TΔS [kcal/mol]: 3.8 ± 0.5; N: 0.61 ± 0.06; Kd [nM]: 79.5 ± 32.8; r.p.: 66 | K2: ΔG [kcal/mol]: -7.1 ± 0.1; ΔH [kcal/mol]: -10.3 ± 0.1; -TΔS [kcal/mol]: 3.2 ± 0.2; N: 1.08 ± 0.13; Kd [nM]: 6 230 ± 440; r.p.: 1 | L2: ΔG [kcal/mol]: -10.1 ± 0.1; ΔH [kcal/mol]: -19.5 ± 1.3; -TΔS [kcal/mol]: 9.4 ± 1.3; N: 0.52 ± 0.06; Kd [nM]: 39.9 ± 3.6; r.p.: 156 […]
Expression and purification of LecA as well as competitive binding by fluorescence polarization was performed as described by Joachim et al..[9] The assay was performed in TBS/Ca2+ buffer (20 mM Tris, 137 mM NaCl, 2.6 mM KCl at pH 7.4 supplemented with 1 mM […]
CaCl2) in presence of 25% DMSO. […]
Isothermal titration calorimetry was performed on an iTC200 (Malvern Panalytical) and the data were analyzed using Microcal Origin software (Malvern Panalytical). LecA (50 - 180 […]
K2 and L2 and TBS/Ca2+ buffer supplemented with 5% DMSO for I2 and J2. Steep titration slopes achieved with the divalent ligands were the result of high amount of protein present and the high binding affinity of the ligand (high ‘value of c’).[10] However, LecA protein […]
low heat released upon binding. […]

LecA [2] = biological target: T1, LecA; assay: LecA binding and cellular uptake by fluorescence confocal microscopy; type: cell-based; details: for LecA binding to H1299 cells (fluorescence signal): 10 μM inhibitor; for Concentration for complete inhibition of LecA binding and cellular uptake: 0.5 μM LecA-AF488, H1299 cells, confocal microscopy
Experimental: The ability of H2 and L2 to diminish LecA binding to host receptors at the plasma membrane and its subsequent internalization into H1299 cells was further analyzed by confocal fluorescence microscopy. Here, the applied LecA concentration was increased to improve signal to noise and consequently image quality and inhibitors were preincubated with 0.5 μM LecA before addition to the cells. […] Confocal microscopy images thus confirmed that the divalent inhibitors can prevent LecA binding to the cell surface and reduce lectin uptake in a concentration‐dependent manner. […]
LecA binding and cellular uptake by fluorescence confocal microscopy
Between 5 and 7 × 10^4 cells were seeded on a 12 mm glass coverslip to which they adhered overnight, at 37 °C and 5% CO2. The next day, the cells were incubated with 0.5 µM LecA-AF488 for 30 min at 4 °C and protected from light. Where indicated, LecA was firstly preincubated with PNPG, G2, K2, H2 or L2 in RPMI medium, for 30 min at room temperature and protected from light and then added to the cells for further incubation (30 min, 4 °C).
Subsequently, cells were washed with PBS (-/-) to remove the unbound lectin and inhibitors and the samples were incubated for 1 h at 37 °C. After the lectin stimulation, cells were washed twice with ice-cold PBS (-/-), fixed with 4% paraformaldehyde solution for 15 min and quenched with 50 mM ammonium chloride for 10 min. The membrane was permeabilized and cells were blocked by 0.2% Saponin in 3% BSA in PBS (w/v) for 30 min. The cell nuclei were counterstained with DAPI (5 × 10-9 g/L), and the samples were mounted on coverslips using Mowiol 4-88 (containing the anti-bleaching reagent DABCO). Samples were visualized with laser scanning confocal microscope system from Nikon (Eclipse Ti-E, A1R), equipped with a 60x oil immersion objective and a numerical aperture (NA) of 1.49. The images were analyzed

[3] = ITC average, 25 °C, TBS/Ca2+ buffer (5% DMSO for I2 and J2), N=3
[4] = Kd, individual titration, single ITC titrations, three per ligand
[5] = single ITC titrations, three per ligand
[6] = Kd (ITC), ITC average, 25 °C, TBS/Ca2+ buffer

T1 sequence (Q05097 whole entry): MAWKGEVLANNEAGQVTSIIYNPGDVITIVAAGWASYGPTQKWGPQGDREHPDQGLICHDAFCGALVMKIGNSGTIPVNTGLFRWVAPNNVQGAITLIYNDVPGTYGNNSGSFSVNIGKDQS

For `O=C(CCc1ccc(O[C@@H]2O[C@H](CO)[C@H](O)[C@H](O)[C@H]2O)cc1)Nc1ccc(CCc2ccc(NC(=O)CCc3ccc(O[C@@H]4O[C@H](CO)[C@H](O)[C@H](O)[C@H]4O)cc3)cc2S(=O)(=O)O)c(S(=O)(=O)O)c1` [Compound L2], the “-TΔS (supplement)” value (LecA [1]; 25 °C) was 9.4 ± 1.3 kcal/mol, the ΔS (LecA [1]; 25 °C) was -31.6 ± 4.4 cal/mol/K and the “N (stoichiometry)” value (LecA [1]; ITC average, 25 °C, N=3) was 0.52 ± 0.06. The “-TΔS” value (LecA [1]; [3]) was 9.4 ± 1.3 kcal/mol, the ΔG (LecA [1]; [3]) was -10.1 ± 0.1 kcal/mol and the ΔH (LecA [1]; [3]) was -19.5 ± 1.3 kcal/mol. The Kd (LecA [1]; Kd (ITC), ITC average, 25 °C, TBS/Ca2+ buffer (5% DMSO for I2 and J2), N=3) was 0.0399 ± 0.0036 µM, the Kd (LecA [1]; [4]) was 0.0448 µM and 0.038 µM and 0.0368 µM and the “Relative potency r.p. (ITC)” value (LecA [1]) was 156. The “N, individual titration” value (LecA [1]; [5]) was 0.56 and 0.55 and 0.44, the “ΔS, individual titration” value (LecA [1]; [5]) was -27.5 cal/mol/K and -37.6 cal/mol/K and -29.6 cal/mol/K and the “ΔG, individual titration” value (LecA [1]; [5]) was -10.0 kcal/mol and -10.1 kcal/mol (2×). The “ΔH, individual titration” value (LecA [1]; [5]) was -18.9 kcal/mol and -18.3 kcal/mol and -21.4 kcal/mol and the “LecA binding to H1299 cells (fluorescence signal)” value (LecA [2]) was “remarkably decreased”.
With `Cc1ccc(NC(=O)CCc2ccc(O[C@@H]3O[C@H](CO)[C@H](O)[C@H](O)[C@H]3O)cc2)cc1S(=O)(=O)O` [Compound K2] the “-TΔS (supplement)” value (LecA [1]; 25 °C) was 3.2 ± 0.2 kcal/mol, the ΔS (LecA [1]; 25 °C) was -10.7 ± 0.6 cal/mol/K and the “N (stoichiometry)” value (LecA [1]; ITC average, 25 °C, N=3) was 1.08 ± 0.13. The “-TΔS” value (LecA [1]; [3]) was 3.2 ± 0.2 kcal/mol, the ΔG (LecA [1]; [3]) was -7.1 ± 0.1 kcal/mol and the ΔH (LecA [1]; [3]) was -10.3 ± 0.1 kcal/mol. The Kd (LecA [1]; [6]) was 6.23 ± 0.44 µM, the Kd (LecA [1]; [4]) was 6.33 µM and 5.65 µM and 6.71 µM and the “Relative potency r.p. (ITC)” value (LecA [1]) was 1. For the same molecule, the “N, individual titration” value (LecA [1]; [5]) was 1.25 and 1.05 and 0.94, the “ΔS, individual titration” value (LecA [1]; [5]) was -10.0 cal/mol/K and -11.3 cal/mol/K and -10.7 cal/mol/K and the “ΔG, individual titration” value (LecA [1]; [5]) was -7.1 kcal/mol (2×) and -7.2 kcal/mol. For the same molecule, the “ΔH, individual titration” value (LecA [1]; [5]) was -10.3 kcal/mol and -10.1 kcal/mol and -10.4 kcal/mol and the “Concentration for complete inhibition of LecA binding and cellular uptake” value (LecA [2]) was 75 µM.
In the case of `COc1ccc(NC(=O)CCc2ccc(O[C@@H]3O[C@H](CO)[C@H](O)[C@H](O)[C@H]3O)cc2)cn1` [Compound G2], the “-TΔS (supplement)” value (LecA [1]; 25 °C) is reported as 3.8 ± 0.2 kcal/mol, the ΔS (LecA [1]; 25 °C) is reported as -12.8 ± 0.6 cal/mol/K and the “N (stoichiometry)” value (LecA [1]; ITC average, 25 °C, N=3) is reported as 1.07 ± 0.06. For the same molecule, the “-TΔS” value (LecA [1]; [3]) was 3.8 ± 0.2 kcal/mol, the ΔG (LecA [1]; [3]) was -7.2 ± 0.01 kcal/mol and -7.2 ± 0.1 kcal/mol and the ΔH (LecA [1]; [3]) was -11.0 ± 0.2 kcal/mol. For the same molecule, the Kd (LecA [1]; [6]) was 5.27 ± 0.03 µM, the Kd (LecA [1]; [4]) was 5.32 µM and 5.26 µM and 5.24 µM and the “Relative potency r.p. (ITC)” value (LecA [1]) was 1. For the same molecule, the “N, individual titration” value (LecA [1]; [5]) was 1.10 and 1.13 and 0.99, the “ΔS, individual titration” value (LecA [1]; [5]) was -12.5 cal/mol/K and -13.7 cal/mol/K and -12.3 cal/mol/K and the “ΔG, individual titration” value (LecA [1]; [5]) was -7.2 kcal/mol. The “ΔH, individual titration” value (LecA [1]; [5]) was -10.9 kcal/mol (2×) and -11.3 kcal/mol and the “Concentration for complete inhibition of LecA binding and cellular uptake” value (LecA [2]) was 75 µM.
For `O=C(CCc1ccc(O[C@@H]2O[C@H](CO)[C@H](O)[C@H](O)[C@H]2O)cc1)Nc1ccc(OCCOc2ccc(NC(=O)CCc3ccc(O[C@@H]4O[C@H](CO)[C@H](O)[C@H](O)[C@H]4O)cc3)cn2)nc1` [Compound H2], the “LecA binding to H1299 cells (fluorescence signal)” value (LecA [2]) was “remarkably decreased”.
